Ends that are not written are not given here.
Legend:
hFlt-1 = hFlt-1 (Homo sapiens, UniProt P17948); assay: Binding of alanine-substituted and truncated phage clones to immobilized Flt-1 receptor by ELISA; conditions: relative to clone V5.2
[1] = biological target: VEGF receptor-1 (human Flt-1/Fc chimera) (Homo sapiens, UniProt P17948); assay: Phage binding assay to immobilized VEGF receptor-1 (anti-M13 ELISA); conditions: 10^9 virions/200 μl, overnight at 4 degree
endothelial cells = conditions: VEGF binding to KDR; cited from earlier work
Flt-1 = Flt-1 (Homo sapiens, UniProt P17948); conditions: cited from earlier work
Chain of Flt-1 (P17948 27-1338, species assumed): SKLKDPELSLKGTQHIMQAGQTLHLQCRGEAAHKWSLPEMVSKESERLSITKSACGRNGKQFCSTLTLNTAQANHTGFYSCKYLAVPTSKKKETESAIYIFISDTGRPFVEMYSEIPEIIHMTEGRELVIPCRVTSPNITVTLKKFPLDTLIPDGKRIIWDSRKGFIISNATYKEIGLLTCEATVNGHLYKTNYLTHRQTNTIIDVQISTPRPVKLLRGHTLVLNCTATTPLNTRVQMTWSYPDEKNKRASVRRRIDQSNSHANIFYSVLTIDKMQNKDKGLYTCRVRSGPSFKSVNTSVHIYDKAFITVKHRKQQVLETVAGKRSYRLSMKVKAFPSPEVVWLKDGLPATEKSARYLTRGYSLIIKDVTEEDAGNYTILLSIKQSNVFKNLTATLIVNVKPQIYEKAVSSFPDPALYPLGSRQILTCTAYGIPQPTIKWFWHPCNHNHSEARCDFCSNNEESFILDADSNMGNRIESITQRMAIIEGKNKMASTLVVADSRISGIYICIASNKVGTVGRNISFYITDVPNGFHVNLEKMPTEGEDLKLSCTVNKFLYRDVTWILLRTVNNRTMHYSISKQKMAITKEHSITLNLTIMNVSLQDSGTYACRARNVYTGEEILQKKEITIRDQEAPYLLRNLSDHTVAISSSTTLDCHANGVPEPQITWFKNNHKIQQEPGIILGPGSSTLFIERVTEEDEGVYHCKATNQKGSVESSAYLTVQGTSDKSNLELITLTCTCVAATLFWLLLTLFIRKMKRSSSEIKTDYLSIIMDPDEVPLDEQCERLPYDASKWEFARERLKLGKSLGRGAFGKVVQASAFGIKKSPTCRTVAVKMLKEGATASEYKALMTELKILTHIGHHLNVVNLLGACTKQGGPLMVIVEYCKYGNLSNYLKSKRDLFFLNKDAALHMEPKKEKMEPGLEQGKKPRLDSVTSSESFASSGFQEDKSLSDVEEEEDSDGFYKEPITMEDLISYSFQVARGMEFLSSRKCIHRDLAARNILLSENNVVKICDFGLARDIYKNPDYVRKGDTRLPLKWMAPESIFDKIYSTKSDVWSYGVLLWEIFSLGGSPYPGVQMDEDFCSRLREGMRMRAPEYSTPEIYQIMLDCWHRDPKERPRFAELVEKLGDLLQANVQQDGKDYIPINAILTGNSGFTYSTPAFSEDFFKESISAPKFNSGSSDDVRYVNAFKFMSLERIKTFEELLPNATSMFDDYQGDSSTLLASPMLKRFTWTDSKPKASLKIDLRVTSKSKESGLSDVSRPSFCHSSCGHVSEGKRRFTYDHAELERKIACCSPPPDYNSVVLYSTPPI

Chain of hFlt-1 (P17948 27-687 isoform P17948-2 limits assumed): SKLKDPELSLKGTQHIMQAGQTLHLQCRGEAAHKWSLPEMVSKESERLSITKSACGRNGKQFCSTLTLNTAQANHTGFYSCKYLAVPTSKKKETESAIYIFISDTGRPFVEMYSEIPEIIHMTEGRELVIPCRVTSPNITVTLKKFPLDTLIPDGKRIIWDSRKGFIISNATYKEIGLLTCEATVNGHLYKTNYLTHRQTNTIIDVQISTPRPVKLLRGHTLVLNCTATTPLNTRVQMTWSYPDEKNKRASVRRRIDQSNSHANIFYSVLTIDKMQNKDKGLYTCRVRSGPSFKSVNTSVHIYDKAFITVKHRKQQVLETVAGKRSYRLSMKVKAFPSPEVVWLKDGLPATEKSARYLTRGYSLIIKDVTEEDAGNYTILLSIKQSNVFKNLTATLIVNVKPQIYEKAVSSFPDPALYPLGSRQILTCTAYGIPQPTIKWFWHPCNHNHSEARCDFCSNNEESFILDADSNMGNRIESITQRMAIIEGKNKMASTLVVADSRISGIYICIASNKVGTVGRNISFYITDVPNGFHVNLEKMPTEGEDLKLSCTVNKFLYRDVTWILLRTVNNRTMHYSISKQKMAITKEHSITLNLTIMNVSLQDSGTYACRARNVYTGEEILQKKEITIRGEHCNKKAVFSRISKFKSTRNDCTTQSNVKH
Chain of VEGF receptor-1 (human Flt-1/Fc chimera) (P17948 27-687 isoform P17948-2 limits assumed): as above

EIEWYSW (displayed on phage; Chemical peptide synthesis and biosynthesis utilizing E. coli) [V5.2/1]
Binding to hFlt-1 in % (hFlt-1): 6.55 ± 15.81%

FVGGWLVPEDERLYPE [V40]
ABSORBANCE, A 405 [1]: 0.025 ± 0.014

NGYAIAWYSWVTHGMY (displayed on phage; Chemical peptide synthesis and biosynthesis utilizing E. coli) [E46/A]
Binding to hFlt-1 in % (hFlt-1): 44.46 ± 7.05%

NGYEIEAYSAVTHGMY (displayed on phage; Chemical peptide synthesis and biosynthesis utilizing E. coli) [W710/A]
Binding to hFlt-1 in % (hFlt-1): 62.15 ± 22.16%

PEPEVRLSPPGHIQSL [V5.10]
ABSORBANCE, A 405 [1]: 0.039 ± 0.013

VEGF
ED50 (endothelial cells): 0.1 to 1 ng/mL | Kd (Flt-1): 0.01 to 0.02 nM

Source: US7112654B2, “Ligand for vascular endothelial growth factor receptor” (Supratek Pharma Inc., priority 2001, dated 2006)
